Read-outs that look alike come from different tables or passages of the source.
Columns and labels:
[1] = system: IMR-32 neuroblastoma cell line; test: cells; format: cell-based, human; details: SRB assay, 48 h
Protocol: (§1) All the newly synthesized compounds were screened for their in vitro anticancer activity against six cancer cell lines: SK-MEL-2, MCF-7, IMR-32, MG-63, HT-29 and Hep-G2 by SRB assay, using adriamycin as a standard drug. All the synthesized derivatives 4(a–n) were also tested for their cytotoxic effect on normal cell lines i.e., NIH/3T3 (murine embryonic fibroblast by the SRB assay method. The cell lines were grown in RPMI 1640 medium containing 10% fetal bovine serum and 2 mM L-glutamine. For the present screening experiments, cells were inoculated into 96 well microtiter plates in 90 µL at 5000 cells per well. After cell inoculation, the microtiter plates were incubated at 37 °C, 5% CO2, 95% air and 100% relative humidity for 24 h prior to addition of experimental drugs. Experimental drugs were solubilized in appropriate solvent to prepare stock of 10^−2 concentration. At the time of experiment four 10-fold serial dilutions were made using complete medium. Aliquots of 10 µL of these different drug dilutions were added to the appropriate micro-titer wells already containing 90 µL of medium, resulting in the required final drug concentrations. After compound addition, plates were incubated at standard conditions for 48 h. and assay was terminated by the addition of cold trichloroacetic acid (TCA). Cells were fixed in situ by the gentle addition of […] (final concentration, 10% TCA) and incubated for 60 min at 4 °C. The supernatant was discarded; the plates were washed five times with tap water and air dried.
(§2) Sulforhodamine B (SRB) solution (50 µL) at 0.4% (w/v) in 1% acetic acid was added to each of the wells, and plates were incubated for 20 min at room temperature. After staining, unbound dye was recovered and the residual dye was removed by washing five times with 1% acetic acid. The plates were air dried. Bound stain was subsequently eluted with 10 mM trizma base, and the absorbance was read on an ELISA plate reader at a wavelength of 540 nm with 690 nm reference wavelength. All the tests were repeated in at least three independent experiments at the concentrations of 10, 20, 40 and 80 µg/mL [57].

in vitro = format: cell-based; details: mouse; SRB assay, normal murine embryonic fibroblast cell line; read-out: GI50 NIH/3T3
Protocol: as §1, §2

[2] = system: Hep-G2 human hepatoma cell line; test: cells; format: cell-based; details: SRB assay, 48 h, Hep-G2
Protocol: as §1, §2

[3] = system: HT-29 human colon cancer cell line; test: cells; format: cell-based; details: for anticancer activity compared with standard drug adriamycin, HT-29: HT-29 (human colon cancer) cell line; for GI50: SRB assay, 48 h, HT-29
Protocol: as §1, §2

[4] = system: MG-63 human osteosarcoma cell line; test: cells; format: cell-based; details: SRB assay, 48 h
Protocol: as §1, §2

[5] = system: MCF-7 human breast cancer cell line; test: cells; format: cell-based; details: 48 h
Protocol: as §1, §2

[6] = system: SK-MEL-2 human melanoma cancer cell line; test: cells; format: cell-based; details: SRB assay, 48 h, read-out: GI50 SKMEL-2
Protocol: as §1, §2

[7] = system: NIH/3T3 normal murine embryonic fibroblast cell line; test: in vitro; format: cell-based; details: SRB assay
Protocol: as §1, §2

Swiss albino mice = test: In vivo acute oral toxicity study and gross behavioral studies (OECD Guideline no. 425); set-up: key to Additional Observation: Convulsions / Behavioral Observation: Motor Activity / Behavioral Observation: Stereotypy / Behavioral Observation: Tremors / Behavioral Observation: Catalepsy / Behavioral Observation: Sedation / Behavioral Observation: Hypnosis / Behavioral Observation: Muscle Spasm / Behavioral Observation: Analgesia / Behavioral Observation: Arching & Rolling / Additional Observation: Skin and Fur / Additional Observation: Eyes Lacrimation / Additional Observation: Salivation / Additional Observation: Diarrhea / Additional Observation: Respiration / Additional Observation: Straub Tail / Additional Observation: Pilo Erection: N. no; Y: Yes; details: for Additional Observation: Convulsions / Additional Observation: Diarrhea / Additional Observation: Eyes Lacrimation / Additional Observation: Pilo Erection / Additional Observation: Respiration / Additional Observation: Salivation / Additional Observation: Skin and Fur / Additional Observation: Straub Tail / Behavioral Observation: Analgesia / Behavioral Observation: Arching & Rolling / Behavioral Observation: Catalepsy / Behavioral Observation: Hypnosis / Behavioral Observation: Motor Activity / Behavioral Observation: Muscle Spasm / Behavioral Observation: Sedation / Behavioral Observation: Stereotypy / Behavioral Observation: Tremors / No. of Death / Toxicity: Swiss albino mice; for Additional Observation: Convulsions / Additional Observation: Diarrhea / Additional Observation: Eyes Lacrimation / Additional Observation: Pilo Erection / Additional Observation: Respiration / Additional Observation: Salivation / Additional Observation: Skin and Fur / Additional Observation: Straub Tail / Behavioral Observation: Analgesia / Behavioral Observation: Arching & Rolling / Behavioral Observation: Catalepsy / Behavioral Observation: Hypnosis / Behavioral Observation: Motor Activity / Behavioral Observation: Muscle Spasm / Behavioral Observation: Sedation / Behavioral Observation: Stereotypy / Behavioral Observation: Tremors: single oral dose; for No. of Death / Toxicity: single oral dose 100-2000 mg/kg; for lethal dose / mortality: mice, oral; for mortality: up to 2000 mg/kg
Protocol: The in vivo acute oral toxicity study for the newly synthesized scaffolds 4b and 4h was performed according to the OECD Guideline no. 425 [60] using Swiss albino mice (18–22 gm weight) quarantined at the animal house at Y.B. Chavan College of Pharmacy, Aurangabad IAEC approval number CPCSEA/IAEC/P’col-52/2015-16/115. Each group consisted of six mice (overnight fasted) and kept in a colony cage at 25 ± 2 °C with 55% relative humidity and 12 h of light and dark cycle. A specified dose of 100, 250, 500, 750, 1000, 1500 and 2000 mg/kg body weight of mice was administered orally as a single dose. The acute toxic symptoms and the behavioral changes produced by the test compounds were observed continuously for 4 h periods at 8th, 12th and 24th h. Onset of toxic symptoms and the gross behavioral changes were also recorded. These animals were maintained for further 10 days with observations made daily. In case the animal appeared moribund (dying) the animal was sacrificed in a humane way and it is considered to have died because of toxicity.

CCOP(=O)(OCC)C(N/N=C1\C(=O)Nc2ccccc21)c1ccc([N+](=O)[O-])cc1 (centres unmarked) [4m, (Z)-Diethyl (4-nitrophenyl)(2-(2-oxoindolin-3-ylidene)hydrazinyl)methylphosphonate]
GI50 ([1]; Homo sapiens): 56.6 µM | GI50 (in vitro): > 250 µM | GI50 ([2]; Homo sapiens, HepG2): 13.3 µM | anticancer activity compared with standard drug adriamycin, HT-29 [3]: equipotent | GI50 ([3]; Homo sapiens): < 0.1 µM | GI50 ([4]; Homo sapiens): < 0.1 µM | GI50 ([5]; Homo sapiens, MCF7, SRB assay): 77.2 µM | GI50 ([6]; Homo sapiens): 44.2 µM | melting point: 172 to 174 °C

CCOP(=O)(OCC)C(NN=C1C(=O)Nc2ccccc21)c1ccc(OC)cc1 (centres unmarked) [4d, (Z)-Diethyl(4-methoxyphenyl)(2-(2-oxoindolin-3-ylidene)hydrazinyl)methylphosphonate]
GI50 [1]: > 100 µM | GI50 [7]: > 250 µM | GI50 [2]: 45.3 µM | anticancer activity compared with standard drug adriamycin, HT-29 [3]: equipotent | GI50 [3]: < 0.1 µM | GI50 [4]: < 0.1 µM | GI50 ([5]; SRB assay): > 100 µM | GI50 [6]: 65.7 µM

CCOP(=O)(OCC)C(N/N=C1\C(=O)Nc2ccccc21)c1ccccc1O (centres unmarked) [4k, (Z)-Diethyl (2-hydroxyphenyl)(2-(2-oxoindolin-3-ylidene)hydrazinyl)methylphosphonate]
GI50 ([1]; Homo sapiens): 44.1 µM | GI50 (in vitro): > 250 µM | GI50 ([2]; Homo sapiens, HepG2): 11.7 µM | GI50 ([3]; Homo sapiens): 26.1 µM | GI50 ([4]; Homo sapiens): < 0.1 µM | GI50 ([5]; Homo sapiens, MCF7, SRB assay): > 100 µM | GI50 ([6]; Homo sapiens): 66.2 µM | melting point: 152 to 154 °C

CCOP(=O)(OCC)C(NN=C1C(=O)Nc2ccccc21)c1ccc(OC)c(OC)c1 (centres unmarked) [4e, Diethyl(3,4-dimethoxyphenyl)(2-(2-oxoindolin-3-ylidene)hydrazinyl)methylphosphonate]
GI50 [1]: > 100 µM | GI50 [7]: > 250 µM | GI50 [2]: 12.2 µM | anticancer activity compared with standard drug adriamycin, HT-29 [3]: equipotent | GI50 [3]: < 0.1 µM | GI50 [4]: < 0.1 µM | GI50 ([5]; SRB assay): > 100 µM | GI50 [6]: 55.2 µM

CCOP(=O)(OCC)C(NN=C1C(=O)Nc2ccccc21)c1ccc(Cl)cc1 (centres unmarked) [4b, Diethyl(4-chlorophenyl)(2-(2-oxoindolin-3-ylidene)hydrazinyl)methylphosphonate]
GI50 [1]: > 100 µM | GI50 [7]: > 250 µM | Additional Observation: Convulsions (Swiss albino mice): N | Additional Observation: Diarrhea (Swiss albino mice): N | Additional Observation: Eyes Lacrimation (Swiss albino mice): N | Additional Observation: Pilo Erection (Swiss albino mice): Y | Additional Observation: Respiration (Swiss albino mice): N | Additional Observation: Salivation (Swiss albino mice): N | Additional Observation: Skin and Fur (Swiss albino mice): N | Additional Observation: Straub Tail (Swiss albino mice): N | Behavioral Observation: Analgesia (Swiss albino mice): N | Behavioral Observation: Arching & Rolling (Swiss albino mice): N | Behavioral Observation: Catalepsy (Swiss albino mice): N | Behavioral Observation: Hypnosis (Swiss albino mice): N | Behavioral Observation: Motor Activity (Swiss albino mice): N | Behavioral Observation: Muscle Spasm (Swiss albino mice): N | Behavioral Observation: Sedation (Swiss albino mice): N | Behavioral Observation: Stereotypy (Swiss albino mice): N | Behavioral Observation: Tremors (Swiss albino mice): N | No. of Death (Swiss albino mice): Nil | Toxicity (Swiss albino mice): free of any toxicity and Nil | lethal dose (Swiss albino mice): above 2000 mg/kg body weight | mortality (Swiss albino mice): No mortality | GI50 [2]: 18.6 µM | GI50 [3]: 46.9 µM | GI50 [4]: < 0.1 µM | GI50 ([5]; SRB assay): 67.2 µM | GI50 [6]: 41.4 µM

CCOc1cc(C(N/N=C2\C(=O)Nc3ccccc32)P(=O)(OCC)OCC)ccc1O (centres unmarked) [4h, (Z)-Diethyl(3-ethoxy-4-hydroxyphenyl)(2-(2-oxoindolin-3-ylidene)hydrazinyl)methylphosphonate]
GI50 [1]: > 100 µM | GI50 [7]: > 250 µM | Additional Observation: Convulsions (Swiss albino mice): N | Additional Observation: Diarrhea (Swiss albino mice): N | Additional Observation: Eyes Lacrimation (Swiss albino mice): N | Additional Observation: Pilo Erection (Swiss albino mice): Y | Additional Observation: Respiration (Swiss albino mice): N | Additional Observation: Salivation (Swiss albino mice): N | Additional Observation: Skin and Fur (Swiss albino mice): N | Additional Observation: Straub Tail (Swiss albino mice): N | Behavioral Observation: Analgesia (Swiss albino mice): N | Behavioral Observation: Arching & Rolling (Swiss albino mice): N | Behavioral Observation: Catalepsy (Swiss albino mice): N | Behavioral Observation: Hypnosis (Swiss albino mice): N | Behavioral Observation: Motor Activity (Swiss albino mice): Y | Behavioral Observation: Muscle Spasm (Swiss albino mice): N | Behavioral Observation: Sedation (Swiss albino mice): N | Behavioral Observation: Stereotypy (Swiss albino mice): N | Behavioral Observation: Tremors (Swiss albino mice): N | No. of Death (Swiss albino mice): Nil | Toxicity (Swiss albino mice): free of any toxicity and Nil | lethal dose (Swiss albino mice): above 2000 mg/kg body weight | mortality (Swiss albino mice): No mortality | GI50 [2]: 43.8 µM | GI50 [3]: 4.1 µM | GI50 [4]: < 0.1 µM | GI50 ([5]; SRB assay): 70.7 µM | GI50 [6]: 51 µM

Source: paper PMC6222476 (Molecules : A Journal of Synthetic Chemistry and Natural …, 2018)
